Converted amounts (≈) assume the structure as drawn.
Legend:
Test in all cases: In-vitro antifungal spectrum and MIC, clinical isolates
Type in all cases: cell-based
Pseudallescheria boydii = tested on: Pseudallescheria boydii
Procedure: (§1) The experiments were carried out to determine antifungal spectrum and MIC of Nanosomal Amphotericin B vis-à-vis commonly used antifungals viz.
(§2) Amphotericin B, Voriconazole, Itraconazole and Fluconazole to ascertain efficacy against pathogenic yeasts and moulds including dermatophytes.

Trichophyton rubrum = conditions: for MIC: in µg/mL (unit assumed)
Procedure: as §1, §2

Penicillium marneffei = conditions: for MIC: in µg/mL (unit assumed)
Procedure: as §1, §2

Apophysomyces elegans = conditions: for MIC: unit assumed
Procedure: as §1, §2

Curvularia spp. = conditions: for MIC: in µg/mL (unit assumed)
Procedure: as §1, §2

Mucor spp. = conditions: for MIC: in µg/mL (unit assumed)
Procedure: as §1, §2

[1] = tested on: Trichophyton mentagrophytes; conditions: for MIC: in µg/mL (unit assumed)
Procedure: as §1, §2

Paeciliomyces spp. = conditions: for MIC: in µg/mL (unit assumed)
Procedure: as §1, §2

Fusarium spp. = conditions: for MIC: in µg/mL (unit assumed)
Procedure: as §1, §2

Phialophora verrucosa = conditions: for MIC: unit assumed
Procedure: as §1, §2

[2] = tested on: Cladophialophora bantiana; conditions: for MIC: in µg/mL (unit assumed)
Procedure: as §1, §2

Cryptococcus neoformans = conditions: for MIC: in µg/mL (unit assumed)
Procedure: as §1, §2

Absidia corymbifera = conditions: for MIC: in µg/mL (unit assumed)
Procedure: as §1, §2

Microsporum gypseum = conditions: for MIC: in µg/mL (unit assumed)
Procedure: as §1, §2

Sporothrix schenckii = conditions: for MIC: in µg/mL (unit assumed)
Procedure: as §1, §2

[3] = tested on: Rhizopus arrhizus, R. pusilus; conditions: for MIC: in µg/mL (unit assumed)
Procedure: as §1, §2

Candida albicans = conditions: for MIC: in µg/mL (unit assumed)
Procedure: as §1, §2

[4] = tested on: Aspergillus flavus, A. fumigatus; conditions: for MIC: in µg/mL (unit assumed)
Procedure: as §1, §2

Aspergillus oryzae = conditions: for MIC: in µg/mL (unit assumed)
Procedure: as §1, §2

Alternaria spp. = conditions: for MIC: in µg/mL (unit assumed)
Procedure: as §1, §2

Scytalidum dimidatum = conditions: for MIC: unit assumed
Procedure: as §1, §2

For `OC(Cn1cncn1)(Cn1cncn1)c1ccc(F)cc1F` [Fluconazole], the Susceptibility category (Pseudallescheria boydii) was “Resistant”, the MIC (Pseudallescheria boydii; in µg/mL (unit assumed)) was 8-32 and the Susceptibility category (Trichophyton rubrum) was “Variable/Resistant”. For the same compound, the MIC (Trichophyton rubrum) was 4-32, the Susceptibility category (Penicillium marneffei) was “Resistant” and the MIC (Penicillium marneffei) was 32-64. For the same compound, the Susceptibility category (Apophysomyces elegans) was “Resistant”, the MIC (Apophysomyces elegans) was 64 µg/mL (≈ 209 µM) and the Susceptibility category (Curvularia spp.) was “Resistant”. The MIC (Curvularia spp.) was 8-64, the Susceptibility category (Mucor spp.) was “Resistant” and the MIC (Mucor spp.) was 64. The Susceptibility category [1] was “Resistant”, the MIC [1] was 32-64 and the Susceptibility category (Paeciliomyces spp.) was “Resistant”. The MIC (Paeciliomyces spp.) was 64, the Susceptibility category (Fusarium spp.) was “Resistant” and the MIC (Fusarium spp.) was 16-64. The Susceptibility category (Phialophora verrucosa) was “Resistant”, the MIC (Phialophora verrucosa) was 16 µg/mL (≈ 52.2 µM) and the Susceptibility category [2] was “Resistant”. For the same compound, the MIC [2] was 32-64, the Susceptibility category (Cryptococcus neoformans) was “Variable” and the MIC (Cryptococcus neoformans) was 0.125-16. The Susceptibility category (Absidia corymbifera) was “Resistant”, the MIC (Absidia corymbifera) was 64 and the Susceptibility category (Microsporum gypseum) was “Resistant”. The MIC (Microsporum gypseum) was 64, the Susceptibility category (Sporothrix schenckii) was “Resistant” and the MIC (Sporothrix schenckii) was 8-64. The Susceptibility category [3] was “Resistant”, the MIC [3] was 8-64 and the Susceptibility category (Candida albicans) was “Variable”. The MIC (Candida albicans) was 0.125-64, the Susceptibility category [4] was “Resistant” and the MIC [4] was 32-64. The Susceptibility category (Aspergillus oryzae) was “Resistant”, the MIC (Aspergillus oryzae) was 64 and the Susceptibility category (Alternaria spp.) was “Resistant”. For the same compound, the MIC (Alternaria spp.) was 32-64, the Susceptibility category (Scytalidum dimidatum) was “Resistant” and the MIC (Scytalidum dimidatum) was 32 µg/mL (≈ 104 µM).

For `CCC(C)n1ncn(-c2ccc(N3CCN(c4ccc(OCC5COC(Cn6cncn6)(c6ccc(Cl)cc6Cl)O5)cc4)CC3)cc2)c1=O` (stereo not drawn) [Itraconazole], the Susceptibility category (Pseudallescheria boydii) was “Active”, the MIC (Trichophyton rubrum) was 8-16 and the Susceptibility category (Penicillium marneffei) was “Active”. The MIC (Penicillium marneffei) was 1-2, the MIC (Apophysomyces elegans) was 16 µg/mL (≈ 22.7 µM) and the MIC (Curvularia spp.) was 8-16. The MIC (Mucor spp.) was 0.03-8, the Susceptibility category [1] was “Active” and the MIC [1] was 1-2. For the same compound, the MIC (Paeciliomyces spp.) was 0.06-16, the MIC (Fusarium spp.) was 8-32 and the MIC (Phialophora verrucosa) was 16 µg/mL (≈ 22.7 µM). For the same compound, the Susceptibility category [2] was “Active”, the MIC [2] was 0.5-2 and the MIC (Cryptococcus neoformans) was 0.03-4. For the same compound, the MIC (Absidia corymbifera) was 16, the Susceptibility category (Microsporum gypseum) was “Active” and the MIC (Microsporum gypseum) was 0.25-0.5. The MIC (Sporothrix schenckii) was 0.03-16, the MIC [3] was 8-16 and the MIC (Candida albicans) was 0.03-8. For the same compound, the MIC [4] was 0.03-16, the Susceptibility category (Aspergillus oryzae) was “Active” and the MIC (Aspergillus oryzae) was 0.125-0.5. The Susceptibility category (Alternaria spp.) was “Active”, the MIC (Alternaria spp.) was 1-2 and the MIC (Scytalidum dimidatum) was 16 µg/mL (≈ 22.7 µM).

Source: US8883748B2, “Formulation for treating fungal infection” (Lifecare Innovations Pvt. Ltd., priority 2009, dated 2014)
